From ChEMBL document CHEMBL6078713, “Synthesis and mechanistic studies of 4-aminoquinoline-Isatin molecular hybrids and Schiff's bases as promising antimicrobial agents” (Eur J Med Chem, 2025)
Values after ≈ are worked out from the molar mass of the structure shown. Active and inactive are the calls of the source. The calls are words filed in the database; no cut-off is given here.

Key:
Acinetobacter baumannii = assay: Antibacterial activity against Acinetobacter baumannii assessed as inhibition of bacterial growth; assay type: functional
Bacillus subtilis [1] = assay: Antibacterial activity against Bacillus subtilis MTCC 736 assessed as diameter of zone of inhibition at 2 times MIC incubated overnight by disk diffusion method; assay type: functional
Escherichia coli [2] = assay: Ratio of MBC for antibacterial activity against Escherichia coli MTCC 443 to MIC for bactericidal activity against Escherichia coli MTCC 443; assay type: functional
Pseudomonas aeruginosa [3] = assay: Antibacterial activity against Pseudomonas aeruginosa MTCC 2453 assessed as diameter of zone of inhibition at MIC incubated overnight by disk diffusion method; assay type: functional
Salmonella typhi [4] = assay: Antibacterial activity against Salmonella typhi assessed as diameter of zone of inhibition at 2 times MIC incubated overnight by disk diffusion method; assay type: functional, Salmonella enterica subsp. enterica serovar Typhi
Staphylococcus aureus [5] = assay: Synergistic antibacterial activity against Staphylococcus aureus MTCC 902 assessed as fractional inhibitory concentration index incubated overnight in presence of ciprofloxacin by microdilution checkerboard assay; assay type: functional
Pseudomonas aeruginosa [6] = assay: Antibacterial activity against Pseudomonas aeruginosa MTCC 2453 assessed as diameter of zone of inhibition at 500 ug/ml by agar disk diffusion method; assay type: functional; settings: read-out: DIZ
Enterococcus faecalis [7] = assay: Antibacterial activity against Enterococcus faecalis MTCC 439 assessed as diameter of zone of inhibition at MIC incubated overnight by disk diffusion method; assay type: functional
Salmonella typhi [8] = assay: Synergistic antibacterial activity against Salmonella typhi assessed as fractional inhibitory concentration index incubated overnight in presence of ciprofloxacin by microdilution checkerboard assay; assay type: functional, Salmonella enterica subsp. enterica serovar Typhi
Enterococcus faecalis [9] = assay: Antibacterial activity against Enterococcus faecalis MTCC 439 assessed as diameter of zone of inhibition at 2 times MIC incubated overnight by disk diffusion method; assay type: functional
Bacillus subtilis [10] = assay: Synergistic antibacterial activity against Bacillus subtilis MTCC 736 assessed as inhibition of bacterial growth incubated overnight in presence of ciprofloxacin by serial dilution based spectrophotometer; assay type: functional
Bacillus subtilis [11] = assay: Antibacterial activity against Bacillus subtilis MTCC 736 assessed as diameter of zone of inhibition at MIC incubated overnight by disk diffusion method; assay type: functional
Enterococcus faecalis [12] = assay: Antibacterial activity against Enterococcus faecalis MTCC 439 assessed as diameter of zone of inhibition at 500 ug/ml by agar disk diffusion method; assay type: functional; settings: read-out: DIZ
Escherichia coli [13] = assay: Antibacterial activity against Escherichia coli MTCC 443 assessed as diameter of zone of inhibition at 500 ug/ml by agar disk diffusion method; assay type: functional; settings: read-out: DIZ
Bacillus subtilis [14] = assay: Synergistic antibacterial activity against Bacillus subtilis MTCC 736 assessed as fractional inhibitory concentration index incubated overnight in presence of ciprofloxacin by microdilution checkerboard assay; assay type: functional
Escherichia coli [15] = assay: Synergistic antibacterial activity against Escherichia coli MTCC 443 assessed as fractional inhibitory concentration index incubated overnight in presence of ciprofloxacin by microdilution checkerboard assay; assay type: functional
Staphylococcus aureus [16] = assay: Antibacterial activity against Staphylococcus aureus MTCC 902 assessed as diameter of zone of inhibition at 500 ug/ml by agar disk diffusion method; assay type: functional; settings: read-out: DIZ
Enterococcus faecalis [17] = assay: Antibacterial activity against Enterococcus faecalis MTCC 439 assessed as inhibition of bacterial growth incubated overnight by serial dilution based spectrophotometer; assay type: functional
Staphylococcus aureus [18] = assay: Antibacterial activity against Staphylococcus aureus MTCC 902 assessed as diameter of zone of inhibition at MIC incubated overnight by disk diffusion method; assay type: functional
Bacillus subtilis [19] = assay: Bactericidal activity against Bacillus subtilis MTCC 736 assessed as inhibition of bacterial growth incubated overnight; assay type: functional
Pseudomonas aeruginosa [20] = assay: Ratio of MBC for antibacterial activity against Pseudomonas aeruginosa MTCC 2453 to MIC for bactericidal activity against Pseudomonas aeruginosa MTCC 2453; assay type: functional
Pseudomonas aeruginosa [21] = assay: Synergistic antibacterial activity against Pseudomonas aeruginosa MTCC 2453 assessed as fractional inhibitory concentration index incubated overnight in presence of ciprofloxacin by microdilution checkerboard assay; assay type: functional
Bacillus subtilis [22] = assay: Antibacterial activity against Bacillus subtilis MTCC 736 assessed as inhibition of bacterial growth at 200 ug/ml incubated overnight by spectrophotometry relative to control; assay type: functional
Salmonella typhi [23] = assay: Antibacterial activity against Salmonella typhi assessed as inhibition of bacterial growth incubated overnight by serial dilution based spectrophotometer; assay type: functional, Salmonella enterica subsp. enterica serovar Typhi; settings: Salmonella enterica
Enterococcus faecalis [24] = assay: Antibacterial activity against Enterococcus faecalis MTCC 439 assessed as diameter of zone of inhibition at 0.5 times MIC incubated overnight by disk diffusion method; assay type: functional
Escherichia coli [25] = assay: Antibacterial activity against Escherichia coli MTCC 443 assessed as inhibition of bacterial growth incubated overnight by serial dilution based spectrophotometer; assay type: functional
Enterococcus faecalis [26] = assay: Antibacterial activity against Enterococcus faecalis MTCC 439 assessed as inhibition of bacterial growth at 200 ug/ml incubated overnight by spectrophotometry relative to control; assay type: functional
Staphylococcus aureus [27] = assay: Bactericidal activity against Staphylococcus aureus MTCC 902 assessed as inhibition of bacterial growth incubated overnight; assay type: functional
Bacillus subtilis [28] = assay: Ratio of MBC for antibacterial activity against Bacillus subtilis MTCC 736 to MIC for bactericidal activity against Bacillus subtilis MTCC 736; assay type: functional
Salmonella typhi [29] = assay: Antibacterial activity against Salmonella typhi assessed as diameter of zone of inhibition at 0.5 times MIC incubated overnight by disk diffusion method; assay type: functional, Salmonella enterica subsp. enterica serovar Typhi
Salmonella typhi [30] = assay: Antibacterial activity against Salmonella typhi assessed as diameter of zone of inhibition at MIC incubated overnight by disk diffusion method; assay type: functional, Salmonella enterica subsp. enterica serovar Typhi
Enterococcus faecalis [31] = assay: Synergistic antibacterial activity against Enterococcus faecalis MTCC 439 assessed as fractional inhibitory concentration index incubated overnight in presence of ciprofloxacin by microdilution checkerboard assay; assay type: functional
Staphylococcus aureus [32] = assay: Antibacterial activity against Staphylococcus aureus MTCC 902 assessed as diameter of zone of inhibition at 2 times MIC incubated overnight by disk diffusion method; assay type: functional
Pseudomonas aeruginosa [33] = assay: Antibacterial activity against Pseudomonas aeruginosa MTCC 2453 assessed as diameter of zone of inhibition at 2 times MIC incubated overnight by disk diffusion method; assay type: functional
Escherichia coli [34] = assay: Antibacterial activity against Escherichia coli MTCC 443 assessed as diameter of zone of inhibition at 2 times MIC incubated overnight by disk diffusion method; assay type: functional
Salmonella typhi [35] = assay: Ratio of MBC for antibacterial activity against Salmonella typhi to MIC for bactericidal activity against Salmonella typhi; assay type: functional, Salmonella enterica subsp. enterica serovar Typhi
Pseudomonas aeruginosa [36] = assay: Bactericidal activity against Pseudomonas aeruginosa MTCC 2453 assessed as inhibition of bacterial growth incubated overnight; assay type: functional
Salmonella typhi [37] = assay: Synergistic antibacterial activity against Salmonella typhi assessed as inhibition of bacterial growth incubated overnight in presence of ciprofloxacin by serial dilution based spectrophotometer; assay type: functional, Salmonella enterica subsp. enterica serovar Typhi; settings: Salmonella enterica
Escherichia coli [38] = assay: Antibacterial activity against Escherichia coli MTCC 443 assessed as diameter of zone of inhibition at MIC incubated overnight by disk diffusion method; assay type: functional
Escherichia coli [39] = assay: Bacteriostatic activity against Escherichia coli MTCC 443 assessed as reduction in bacterial growth at 2 times MIC measured upto 24 hrs by absorbance based assay; assay type: functional, organism-based
Salmonella typhi [40] = assay: Antibacterial activity against Salmonella typhi assessed as diameter of zone of inhibition at 500 ug/ml by agar disk diffusion method; assay type: functional, Salmonella enterica subsp. enterica serovar Typhi; settings: Salmonella enterica, read-out: DIZ
Pseudomonas aeruginosa [41] = assay: Synergistic antibacterial activity against Pseudomonas aeruginosa MTCC 2453 assessed as inhibition of bacterial growth incubated overnight in presence of ciprofloxacin by serial dilution based spectrophotometer; assay type: functional
Enterococcus faecalis [42] = assay: Bactericidal activity against Enterococcus faecalis MTCC 439 assessed as inhibition of bacterial growth incubated overnight; assay type: functional
Salmonella typhi [43] = assay: Bactericidal activity against Salmonella typhi assessed as inhibition of bacterial growth incubated overnight; assay type: functional, Salmonella enterica subsp. enterica serovar Typhi; settings: Salmonella enterica
Escherichia coli [44] = assay: Bactericidal activity against Escherichia coli MTCC 443 assessed as inhibition of bacterial growth incubated overnight; assay type: functional
Pseudomonas aeruginosa [45] = assay: Antibacterial activity against Pseudomonas aeruginosa MTCC 2453 assessed as inhibition of bacterial growth incubated overnight by serial dilution based spectrophotometer; assay type: functional
Bacillus subtilis [46] = assay: Antibacterial activity against Bacillus subtilis MTCC 736 assessed as diameter of zone of inhibition at 0.5 times MIC incubated overnight by disk diffusion method; assay type: functional
Bacillus subtilis [47] = assay: Antibacterial activity against Bacillus subtilis MTCC 736 assessed as diameter of zone of inhibition at 500 ug/ml by agar disk diffusion method; assay type: functional; settings: read-out: DIZ
Bacillus subtilis [48] = assay: Antibacterial activity against Bacillus subtilis MTCC 736 assessed as inhibition of bacterial growth incubated overnight by serial dilution based spectrophotometer; assay type: functional
Escherichia coli [49] = assay: Synergistic antibacterial activity against Escherichia coli MTCC 443 assessed as inhibition of bacterial growth incubated overnight in presence of ciprofloxacin by serial dilution based spectrophotometer; assay type: functional
Staphylococcus aureus [50] = assay: Synergistic antibacterial activity against Staphylococcus aureus MTCC 902 assessed as inhibition of bacterial growth incubated overnight in presence of ciprofloxacin by serial dilution based spectrophotometer; assay type: functional
Staphylococcus aureus [51] = assay: Antibacterial activity against Staphylococcus aureus MTCC 902 assessed as inhibition of bacterial growth incubated overnight by serial dilution based spectrophotometer; assay type: functional
Staphylococcus aureus [52] = assay: Bacteriostatic activity against Staphylococcus aureus MTCC 902 assessed as reduction in bacterial growth at 2 times MIC measured upto 24 hrs by absorbance based assay; assay type: functional, organism-based
Pseudomonas aeruginosa [53] = assay: Antibacterial activity against Pseudomonas aeruginosa MTCC 2453 assessed as inhibition of bacterial growth at 200 ug/ml incubated overnight by spectrophotometry relative to control; assay type: functional
Enterococcus faecalis [54] = assay: Synergistic antibacterial activity against Enterococcus faecalis MTCC 439 assessed as inhibition of bacterial growth incubated overnight in presence of ciprofloxacin by serial dilution based spectrophotometer; assay type: functional

N/N=C/c1cc(N2CCOCC2)c2cccc(C(F)(F)F)c2n1
MIC (Acinetobacter baumannii): 2 µg/mL (≈ 6.17 µM)

Fc1ccc(/C=N/CCNc2ccnc3cc(Cl)ccc23)cc1
diameter of the inhibition zone (DIZ) (Bacillus subtilis [1]): 13 mm
Ratio (Escherichia coli [2]): 1
diameter of the inhibition zone (DIZ) (Pseudomonas aeruginosa [3]): 8 mm
diameter of the inhibition zone (DIZ) (Salmonella typhi [4]): 11 mm
fractional inhibitory concentration index (FICI) (Staphylococcus aureus [5]): 1.12
zone of inhibition at 500 µg/mL (Pseudomonas aeruginosa [6]): 7 mm
diameter of the inhibition zone (DIZ) (Enterococcus faecalis [7]): 7 mm
fractional inhibitory concentration index (FICI) (Salmonella typhi [8]): 0.187
diameter of the inhibition zone (DIZ) (Enterococcus faecalis [9]): 7 mm
MIC (Bacillus subtilis [10]): 256 µg/mL
diameter of the inhibition zone (DIZ) (Bacillus subtilis [11]): 9 mm
zone of inhibition at 500 µg/mL (Enterococcus faecalis [12]): 10 mm
zone of inhibition at 500 µg/mL (Escherichia coli [13]): 8 mm
fractional inhibitory concentration index (FICI) (Bacillus subtilis [14]): 2
fractional inhibitory concentration index (FICI) (Escherichia coli [15]): 0.37
zone of inhibition at 500 µg/mL (Staphylococcus aureus [16]): 9 mm
MIC (Enterococcus faecalis [17]): 256 µg/mL (≈ 781 µM)
diameter of the inhibition zone (DIZ) (Staphylococcus aureus [18]): 8 mm
MBC (Bacillus subtilis [19]): 256 µg/mL (≈ 781 µM)
Ratio (Pseudomonas aeruginosa [20]): 1
fractional inhibitory concentration index (FICI) (Pseudomonas aeruginosa [21]): 1.5
inhibition at 200 µg/mL (Bacillus subtilis [22]): 100%
MIC (Salmonella typhi [23]): 128 µg/mL (≈ 390 µM)
diameter of the inhibition zone (DIZ) (Enterococcus faecalis [24]): 7 mm
MIC (Escherichia coli [25]): 512 µg/mL (≈ 1560 µM)
inhibition at 200 µg/mL (Enterococcus faecalis [26]): 100%
MBC (Staphylococcus aureus [27]): > 512 µg/mL
Ratio (Bacillus subtilis [28]): 1
diameter of the inhibition zone (DIZ) (Salmonella typhi [29]): 10 mm
diameter of the inhibition zone (DIZ) (Salmonella typhi [30]): 10 mm
fractional inhibitory concentration index (FICI) (Enterococcus faecalis [31]): 1.5
diameter of the inhibition zone (DIZ) (Staphylococcus aureus [32]): 10 mm
diameter of the inhibition zone (DIZ) (Pseudomonas aeruginosa [33]): 9 mm
diameter of the inhibition zone (DIZ) (Escherichia coli [34]): 13 mm
Ratio (Salmonella typhi [35]): 1
MBC (Pseudomonas aeruginosa [36]): 512 µg/mL (≈ 1560 µM)
MIC (Salmonella typhi [37]): 16 µg/mL
diameter of the inhibition zone (DIZ) (Escherichia coli [38]): 10 mm
Activity (Escherichia coli [39]): Active
zone of inhibition at 500 µg/mL (Salmonella typhi [40]): 11 mm
MIC (Pseudomonas aeruginosa [41]): 256 µg/mL
MBC (Enterococcus faecalis [42]): > 512 µg/mL
MBC (Salmonella typhi [43]): 128 µg/mL (≈ 390 µM)
MBC (Escherichia coli [44]): 512 µg/mL (≈ 1560 µM)
MIC (Pseudomonas aeruginosa [45]): 512 µg/mL (≈ 1560 µM)
diameter of the inhibition zone (DIZ) (Bacillus subtilis [46]): 9 mm
zone of inhibition at 500 µg/mL (Bacillus subtilis [47]): 10 mm
MIC (Bacillus subtilis [48]): 256 µg/mL (≈ 781 µM)
MIC (Escherichia coli [49]): 64 µg/mL
MIC (Staphylococcus aureus [50]): 32 µg/mL
MIC (Staphylococcus aureus [51]): 256 µg/mL (≈ 781 µM)
Activity (Staphylococcus aureus [52]): Active
inhibition at 200 µg/mL (Pseudomonas aeruginosa [53]): 100%
MIC (Enterococcus faecalis [54]): 128 µg/mL

Cc1ccc(N/N=C/c2ccc(CN3CCN(c4ccnc5cc(Cl)ccc45)CC3)cc2)cc1
MIC (Acinetobacter baumannii): 2 µg/mL (≈ 4.26 µM)
